Measured values: patent publication US20190183812A1, “Compounds For The Treatment Of Neuromuscular Disorders” (NMD PHARMA A/S, priority 2017, published 2019)
Counter-ions that a name gives are not always drawn. Like-named read-outs stand apart in the source and are kept apart here.

Legend:
[1] = tested on: isolated rat soleus muscles; test: Recovery of nerve-stimulated force in isolated rat soleus muscles exposed to sub-maximal tubocurarine
Description: (§1) Experiments were performed using rat soleus muscles from either young (4-wk-old) or adult Wistar rats (12-14-week-old). Animal handling, killing and isolation of muscle is described elsewhere All experiments were performed using normal Krebs-Ringer bicarbonate solution (NKR). In solutions with elevated Mg^2+, MgCl2 was added to NKR-solution causing minor increases in osmolarity and ionic strength. In solutions with elevated K^+, 4 mM NaCl was replaced by 4 mM KCl in the NKR.
(§2) In all contraction experiments, isometric force production was determined and force produced during contractions was quantified by measuring the integral of the force response (AUC). Stimulation and force recordings have been described elsewhere. […] In these latter experiments, extracellular recordings of action potentials (M-waves) could be measured without temporal overlap with stimulation artefacts.
The aim was to find compounds that by inhibition of CIC-1 channels can recover nerve-stimulated force under conditions of fatigue including conditions where fatigue is caused by compromised neuromuscular transmission. Neuromuscular transmission dysfunction can develop because of both pre- and/or post-synaptic complications in connection with a disorder or as part of neuromuscular blockade during/after surgery. In the initial series of drug testing, experiments were performed with isolated muscles in the presence of sub-maximal ACh receptor antagonist tubocurarine. Since the inclusion of tubocurarine caused a partial loss of neuromuscular transmission this experiment mimics the conditions in myasthenia gravis and neuromuscular blockade. To mimic conditions with pre-synaptic complication (Lambert Eaton syndrome, motor neuron disorder, polyneuropathy) the intact nerve-muscle preparations were incubated at elevated extracellular Mg^2+, which is known to suppress release of ACh from nerve terminals of motor neurons.
To identify CIC-1 inhibitors that could be used for treatment of neuromuscular disorders we repeated the experiment shown in FIG. 2A but instead of adding 9-AC we added the compounds of interest in different concentrations within the range from 10 to 500 μM. […] For comparison with the muscle only exposed to tubocurarine (grey trace), the two traces have been overlaid. […] For comparison, muscles only exposed to tubocurarine have been included. The dotted line indicates the recovery of force with C8 when compared to the force production before its addition. This value was used in Table 1 for evaluation of the efficacy of the different compounds in recovering force.

human CIC-1 channels = target: T1, human CIC-1 channels (Homo sapiens, UniProt P35523); test: Automated patch-clamp on human CIC-1 expressed in CHO cells; type: cell-based; conditions: compound added to the intracellular solution vs vehicle control patches; positive shift reflects CIC-1 inhibition
T1 construct: host or cells: CHO (Chinese hamster ovary) cells
T1 sequence (P35523 whole entry): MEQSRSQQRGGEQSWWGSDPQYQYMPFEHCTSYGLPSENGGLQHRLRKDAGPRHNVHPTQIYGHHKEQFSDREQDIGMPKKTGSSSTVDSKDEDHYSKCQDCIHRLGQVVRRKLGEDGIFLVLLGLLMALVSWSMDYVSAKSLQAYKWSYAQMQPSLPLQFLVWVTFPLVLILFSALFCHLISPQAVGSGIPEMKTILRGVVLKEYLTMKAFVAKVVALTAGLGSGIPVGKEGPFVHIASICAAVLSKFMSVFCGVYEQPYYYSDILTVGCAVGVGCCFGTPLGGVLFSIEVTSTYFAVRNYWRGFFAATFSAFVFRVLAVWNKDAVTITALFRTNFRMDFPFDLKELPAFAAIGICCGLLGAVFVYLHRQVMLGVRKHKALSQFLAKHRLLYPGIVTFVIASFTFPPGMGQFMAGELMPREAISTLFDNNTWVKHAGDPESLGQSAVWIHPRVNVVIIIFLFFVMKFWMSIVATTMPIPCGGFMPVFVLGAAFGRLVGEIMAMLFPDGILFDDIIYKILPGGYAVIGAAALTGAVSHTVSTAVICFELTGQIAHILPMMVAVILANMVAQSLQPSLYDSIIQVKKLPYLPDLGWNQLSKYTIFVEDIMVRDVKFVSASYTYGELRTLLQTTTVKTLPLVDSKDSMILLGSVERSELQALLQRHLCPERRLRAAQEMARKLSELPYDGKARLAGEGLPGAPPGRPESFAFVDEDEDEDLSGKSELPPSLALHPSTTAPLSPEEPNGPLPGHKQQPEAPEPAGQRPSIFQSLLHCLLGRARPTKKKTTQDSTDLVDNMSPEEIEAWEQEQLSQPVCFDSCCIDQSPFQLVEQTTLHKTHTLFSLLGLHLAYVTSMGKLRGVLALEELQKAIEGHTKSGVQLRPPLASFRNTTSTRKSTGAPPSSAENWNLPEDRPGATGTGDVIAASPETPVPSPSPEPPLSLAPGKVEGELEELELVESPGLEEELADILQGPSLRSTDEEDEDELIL
Description: The investigatory goal of these experiments was to evaluate how compounds affect the open probability and current amplitude of human CIC-1 channels expressed in CHO cells. Experiments were performed using an automated patch clamp system that allowed high throughput testing of whole cell patches together with both intracellular and extracellular addition of compound.
Automated whole cell patch clamp experiments were performed with the Qpatch 16 system (Sophion Bioscience, Ballerup, Denmark) at room temperature. Data acquisition and analysis were performed in the Qassay software (ver. 5.6, Odense).
To evoke CIC-1 currents in whole cell patches, the membrane potential was initially stepped from a holding potential of −30 mV to +60 mV for 100 ms and then to various test voltages (sweeps) ranging from +120 mV to −140 mV in steps of 20 mV for 300 ms. To obtain tail currents, the membrane potential was stepped to −100 mV after each test voltage for 300 ms and then relaxed to −30 mV for 2 sec between sweeps (FIG. 3). I/V relationships for whole cell instant and steady state current amplitudes were obtained by plotting average current densities at the beginning and at the end of the 300 ms step against the membrane potential (FIG. 4).
In order to determine the relative overall open probability (P0), the instantaneous tail currents were normalized to the maximal tail current obtained following the most positive voltage step and plotted against the test voltage. Plots of normalized tail currents from each whole cell patch were then fitted to a Boltzmann function allowing determination of half activation voltages (V1/2, FIG. 5).
For automated patch clamp experiments extracellular solutions contained: 2 mM CaCl2, 1 mM MgCl2, 10 mM HEPES, 4 mM KCl, 145 mM NaCl, 10 mM Glucose, pH adjusted to 7.4 with NaOH (2 M). Osmolality adjusted to ˜320 using sucrose.
Intracellular solutions contained: 80 mM CsF, 60 mM CsCl, 5/1 mM KOH/EGTA, 10 mM HEPES, 10 mM NaCl, pH adjusted to 7.2 with NaOH (2 M). Osmolality adjusted to ˜320 mOsm using sucrose.
Cells used in patch clamp experiments were Chinese hamster ovary cells (CHO) constitutively expressing human CIC-1 channels. The amino acid sequence encoded by the cDNA used to create this cell line was identical to the translated sequence for GenBank accession number NM_000083.2. Cells were produced by Charles River (Catalogue CT6175, Cleveland Ohio, USA) in a cryopreserved format. Experiments were performed on the cells directly after thawing (3×10^6 cells used in each experiment).
To evaluate the compound effect on CIC-1, when applied directly to the intracellular side of the cell membrane, the half activation voltage, V1/2, was determined from whole cell patches with compound added to the intracellular solution and then compared to V1/2 determined from control cell patches with only vehicle added to the intracellular solution. Additionally, the effect of extracellular added compound was evaluated by determine V1/2 and steady state current amplitudes before and after exchanging the extracellular solution to contain compound.
The difference in half activation voltage of CIC-1 channels, […]V1/2, was determined as the difference between the cell patches treated intracellularly with compound and control cells patches and is reported in Table 4 below. A positive shift in […]V1/2 is reflecting CIC-1 channel inhibition by the tested compound. P-values of <0.05 is considered significant.

[2] = tested on: isolated rat soleus muscles; test: Recovery of nerve-stimulated force in isolated rat soleus muscles at elevated extracellular Mg2+ (3.5 mM)
Description: as §1, §2
The aim was to find compounds that by inhibition of CIC-1 channels can recover nerve-stimulated force under conditions of fatigue including conditions where fatigue is caused by compromised neuromuscular transmission. […]
The next series of experiments determined whether the compounds that recovered nerve-stimulated force in the presence of tubocurarine could also recover nerve-stimulated force at elevated extracellular Mg^2+.

rat soleus muscles [3] = test: Tubocurarine concentration required to depress nerve-stimulated force by 50% (Kd,tub), combination with acetylcholinesterase inhibitors
Description: FIGS. 5A-5E. […] Muscles from 4-week-old rats were stimulated to contract by activating the motor nerve with short duration pulses in field stimulation. Muscles contracted every 10 min for 2 s in response to 30 Hz stimulation. Four different experimental conditions were used. […] After this pre-incubation, increasing concentrations of tubocurarine were added to the bath solutions with 60 min (corresponding to six contractions) between each increase in tubocurarine. […] FIG. 5C similar to FIG. 5A but this muscle had been pre-incubated with neostigmine. […] The force integral (AUC) was determined at each tubocurarine concentration. Such AUC determinations were plotted against tubocurarine concentration for each muscle.
CIC-1 is a novel target in treatment of neuromuscular complications and it was therefore explored whether this approach for symptomatic treatment could be used in combination with existing symptomatic treatment approaches. In myasthenia gravis, which in isolated muscles was mimicked by tubocurarine, the symptoms of muscle fatigue are most commonly treated with inhibitors of acethylcholineesterase of which neostigmine and pyridostigmine are examples. Also, neostigmine is the most commonly used reversal agent of neuromuscular blocked after surgery. […] FIG. 5A-D show recordings of nerve-stimulated force production at different tubocurarine concentrations when tested under the four experimental conditions. […] To quantify the effect of compounds on tubocurarine sensitivity, the force at the different tubocurarine concentrations was determined. In plots of nerve-stimulated force against tubocurarine concentration (FIG. 5E) Kd,tub was determined by fitting four parameter sigmoidal functions to the data and the Kd,tub for the different compounds have been collected in Table 4.

rat soleus muscles [4] = test: Mg2+ concentration required to depress nerve-stimulated force by 50% (Kd,Mg2+), combination with 3,4-AP; conditions: 3,4-AP (10 μM) alone
Description: FIGS. 6A-6E. […] Muscles from 4-week-old rats were stimulated to contract by activating the motor nerve with short duration pulses in field stimulation. Muscles contracted every 10 min for 2 s in response to 30 Hz stimulation. Four different experimental conditions were used. […] C) similar to A) but this muscle had been pre-incubated with 3,4-AP. […] The force integral (AUC) was determined at each extracellular Mg^2+ concentration. AUC was plotted against Mg^2+ concentration and the data was fitted to a sigmoidal function. This provided the extracellular Mg^2+ concentration that was required to reduce the nerve-stimulated force to 50% (Mg50) under the four different conditions (see Table 5).
While the use of tubocurarine mimics conditions with reduced neuromuscular transmission due to post-synaptic dysfunction (myasthenia gravis, neuromuscular blockade), the experiments with elevated extracellular Mg^2+ mimics conditions with pre-synaptic dysfunction akin to a range of neuromuscular disorders including Lambert Eaton syndrome, motor neuron disorders and polyneuropathy. Patients with Lambert Eaton syndrome are commonly treated with inhibitors of voltage gated K^+ channels such as 3,4-diaminopyridine (3,4-AP). Based on this it was determined whether recovery of nerve-stimulated force at elevated extracellular Mg^2+ with CIC-1 inhibiting compounds could be added to force recovery with 3,4-AP. […] FIG. 6A-D show recordings of nerve-stimulated force production at different Mg^2+ concentrations when tested under these four experimental conditions. […] To quantify the effect of compounds on Mg^2+ sensitivity the force at the different Mg^2+ concentrations was determined. In plots of nerve-stimulated force against Mg^2+ concentration (FIG. 6E) the Kd,Mg^2+ was determined by fitting four parameter sigmoidal function to the data. Kd, Mg^2+ for the different compounds have been collected in Table 5.

[5] = Rattus norvegicus, 40 min; read-out: 50 μM % change after addition

How did the activation at 50 µM [1, 5] turn out when `CC(C(=O)O)S(=O)(=O)c1ccc(F)cc1` (centres unmarked) [Compound C6, 2-(4-fluorobenzenesulfonyl)propanoic acid] was run?
The activation at 50 µM was -11%.

`COCC(C)C(Oc1ccc(Br)cc1)C(=O)O` (centres unmarked) [Compound C21, 2-(4-bromophenoxy)-4-methoxy-3-methylbutanoic acid] was tested. Which activation at 50 µM [1, 5] did it give?
Its activation at 50 µM is -3%.

For `CCC(=O)c1cc(Cl)ccc1O[C@@H](C)C(=O)O` [Compound A-30, (2S)-2-(4-chloro-2-propanoylphenoxy)propanoic acid], which ΔV½ (human CIC-1 channels) is on record?
The ΔV½ was 6.2 mV.

For `CC(Oc1ccc(Cl)cc1)C(=O)Oc1ccc(Cl)cc1` (centres unmarked) [Compound C11, 4-chlorophenyl 2-(4-chlorophenoxy)propanoate], which activation at 50 µM ([1]; Rattus norvegicus, 40 min, read-out: 50 μM % change after addition) is on record?
The activation at 50 µM was 46%.

`CCC(Oc1ccc(Cl)cc1)C(=O)O` (centres unmarked) [Compound C7, 2-(4-chlorophenoxy)butanoic acid] was tested. Which activation at 50 µM [1, 5] did it give?
Its activation at 50 µM is -12%.

With `C#Cc1cc(Cl)ccc1O[C@@H](C)C(=O)O` [Compound A-20, (2S)-2-(4-chloro-2-ethynylphenoxy)propanoic acid] as the compound, how does the ΔV½ (human CIC-1 channels) read?
The ΔV½ was 26.4 mV.

Which “recovery of force and M-wave signal” value ([1]; tubocurarine) does the source give for `O=C(O)c1c2ccccc2cc2ccccc12` [Compound 9-AC, 9-anthracenecarboxylic acid, reference compound] here?
The value was “marked recovery of both force and M-wave signal”.

And the “recovery of force and M-wave signal” value [2]?
Its value is “marked recovery of both force and M-wave signal”.

How did the Kd (rat soleus muscles [3]; Neostigmine (10 nM) alone) turn out when `CN(C)C(=O)Oc1cccc([N+](C)(C)C)c1` [Neostigmine, neostigmine, reference compound] was run?
The Kd was 0.166 ± 0.013 µM.

`NCC(Oc1ccc(F)cc1)C(=O)O` (centres unmarked) [Compound C9, 3-amino-2-(4-fluorophenoxy)propanoic acid hydrochloride] was tested. Which activation at 50 µM [1, 5] did it give?
Its activation at 50 µM is -14%.

`CN(C)C(=O)Oc1ccc[n+](C)c1` [Pyridostigmine, pyridostigmine, reference compound] was tested. Which Kd (rat soleus muscles [3]; Pyridostigmine (100 nM) alone) did it give?
Its Kd is 0.127 ± 0.015 µM.

How did the activation at 50 µM [1, 5] turn out when `C[C@H](OCc1ccccc1)C(=O)O` [Compound C5, (2S)-2-(benzyloxy)propanoic acid] was run?
Its activation at 50 µM is -7%.

For `C#Cc1cc(Br)ccc1O[C@@H](C)C(=O)O` [Compound A-19, (2S)-2-(4-bromo-2-ethynylphenoxy)propanoic acid], which ΔV½ (human CIC-1 channels) is on record?
Its ΔV½ is 7.7 mV.

`C=Cc1cc(Br)ccc1O[C@@H](C)C(=O)O` [Compound A-17, (2S)-2-(4-bromo-2-ethenylphenoxy)propanoic acid] was tested. Which ΔV½ (human CIC-1 channels) did it give?
Its ΔV½ is 10.3 mV.

With `Nc1ccncc1N` [3,4-AP, 3,4-diaminopyridine, reference compound] as the compound, how does the Kd (rat soleus muscles [4]) read?
The Kd was 5800 ± 300 µM.

`C[C@H](Oc1ccc(Br)cc1C=C(F)F)C(=O)O` [Compound A-36, (2S)-2-[4-bromo-2-(2,2-difluoroethenyl)phenoxy]propanoic acid] was tested. Which ΔV½ (human CIC-1 channels) did it give?
The ΔV½ was 21.5 mV.

For `C[C@H](Oc1ccc(Cl)cc1C1CC1)C(=O)O` [Compound A-4, (2S)-2-(4-chloro-2-cyclopropylphenoxy)propanoic acid], which ΔV½ (human CIC-1 channels) is on record?
Its ΔV½ is 8.8 mV.
